Values of other authors as cited in patent publication US9266789B2, “Liquid dicyandiamide and/or alkyl thiophosphoric triamide compositions and their use in agricultural applications” (RHODIA OPERATIONS, priority 2012, dated 2016).

N#CNC(=N)N [Dicyandiamide, 2-cyanoguanidine]
solubility in water: about 41 g/l
